Our source for the MIC values is ChEMBL document CHEMBL4387753 (Bioorg Med Chem, 2019).

Common to all, as to assay type: functional
Assay [1] concerns Staphylococcus aureus. Put plainly: Antibacterial activity against Staphylococcus aureus ATCC 25923 incubated for 24 hrs by CLSI protocol based broth microdilution method. The following applies: ATCC 25923, 24 h. (In general: Dilution methods test growth across graded concentrations, often in twofold steps.)
The test system of assay [2] is Pseudomonas aeruginosa. Put plainly: Antibacterial activity against Pseudomonas aeruginosa ATCC 27853 incubated for 24 hrs by CLSI protocol based broth microdilution method. Particulars: ATCC 27853, 24 h.
Assay [3] has as its system Staphylococcus aureus. Put plainly: Antibacterial activity against Staphylococcus aureus clinical isolate incubated for 24 hrs by CLSI protocol based broth microdilution method.
For assay [4], the system named is Escherichia coli. Put plainly: Antibacterial activity against Escherichia coli ATCC 25922 incubated for 24 hrs by CLSI protocol based broth microdilution method. The following applies: ATCC 25922, 24 h.
Assay [5] relates to Bacillus pumilus. The experiment in a line: Antibacterial activity against Bacillus pumilus CMCC63202 incubated for 24 hrs by CLSI protocol based broth microdilution method. Particulars: CMCC63202, 24 h.
The test system of assay [6] is Bacillus subtilis. Put plainly: Antibacterial activity against Bacillus subtilis ATCC 9372 incubated for 24 hrs by CLSI protocol based broth microdilution method. Particulars: ATCC 9372, 24 h.
Assay [7] relates to Staphylococcus aureus. Put plainly: Antibacterial activity against methicillin-resistant Staphylococcus aureus ATCC 43300 incubated for 24 hrs by CLSI protocol based broth microdilution method. The following applies: ATCC 43300, 24 h.
Assay [8] has as its system Staphylococcus aureus. Put plainly: Antibacterial activity against penicillin-resistant Staphylococcus aureus clinical isolate incubated for 24 hrs by CLSI protocol based broth microdilution method.

Converted amounts (≈) assume the structure as drawn.

A word on the MIC: it is the least concentration at which growth counts as inhibited. As for `NC(=O)c1c(F)ccc(OCc2nn(-c3ccc(Cl)c(Cl)c3)c(=O)o2)c1F`, the MIC in assay [1] is > 64 µg/mL; in assay [2] it was > 64 µg/mL; in assay [3] it was 64 µg/mL (≈ 154 µM); in assay [4], > 64 µg/mL; in assay [5] it was 4 µg/mL (≈ 9.61 µM); in assay [6], 4 µg/mL (≈ 9.61 µM). The MIC is 64 µg/mL (≈ 154 µM) in assay [7] and > 64 µg/mL in assay [8].
Turning to `CC(C)(C)n1nc(COc2ccc(F)c(C(N)=O)c2F)oc1=O`, the MIC is > 64 µg/mL in assay [1]; > 64 µg/mL in assay [2]; 16 µg/mL (≈ 48.9 µM) in assay [3]; > 64 µg/mL in assay [4]; > 64 µg/mL in assay [5]; 32 µg/mL (≈ 97.8 µM) in assay [6]. The MIC in assay [7] and in assay [8] was > 64 µg/mL each time.
Take `NC(=O)c1c(F)ccc(OCc2nn(-c3cccc(Cl)c3)c(=O)o2)c1F`: the MIC in assay [1] was > 64 µg/mL; in assay [2], > 64 µg/mL; in assay [3], > 64 µg/mL; in assay [4], > 64 µg/mL; in assay [5], > 64 µg/mL; in assay [6], 8 µg/mL (≈ 21 µM). Moreover, the MIC in assay [7] and in assay [8] was > 64 µg/mL each time.
As for `NC(=O)c1c(F)ccc(OCc2nn(-c3ccc(C(F)(F)F)cc3)c(=O)o2)c1F`, the minimum inhibitory concentration (MIC) in assay [1] was 4 µg/mL (≈ 9.63 µM); in assay [2] it was > 64 µg/mL; in assay [3] it was 4 µg/mL (≈ 9.63 µM); in assay [4], > 64 µg/mL; in assay [5], 2 µg/mL (≈ 4.82 µM); in assay [6], 0.125 µg/mL (≈ 0.301 µM). In addition, the MIC in assay [7] is 2 µg/mL (≈ 4.82 µM); in assay [8], 4 µg/mL (≈ 9.63 µM).
Turning to `Cc1cc(Cl)ccc1-n1nc(COc2ccc(F)c(C(N)=O)c2F)oc1=O`, the MIC in assay [1] was 4 µg/mL (≈ 10.1 µM); in assay [2], > 64 µg/mL; in assay [3], 4 µg/mL (≈ 10.1 µM); in assay [4] it was > 64 µg/mL; in assay [5], 0.5 µg/mL (≈ 1.26 µM); in assay [6] it was 0.5 µg/mL (≈ 1.26 µM). In addition, the minimum inhibitory concentration (MIC) in assay [7] amounted to 2 µg/mL (≈ 5.05 µM); in assay [8] it was 4 µg/mL (≈ 10.1 µM).
For the compound `NC(=O)c1c(F)ccc(OCCc2nn(-c3ccc(Br)cc3)c(=O)o2)c1F`, the MIC in assay [1] was 4 µg/mL (≈ 9.09 µM); in assay [2], > 64 µg/mL; in assay [3], 4 µg/mL (≈ 9.09 µM); in assay [4] it was > 64 µg/mL; in assay [5] it was ≤ 0.125 µg/mL; in assay [6], 1 µg/mL (≈ 2.27 µM). Further, the MIC was 2 µg/mL (≈ 4.54 µM) in assay [7] and 4 µg/mL (≈ 9.09 µM) in assay [8].
On to `NC(=O)c1c(F)ccc(OCc2nn(Cc3ccc(Cl)cc3)c(=O)o2)c1F`, for which the MIC was > 64 µg/mL in assay [1]; > 64 µg/mL in assay [2]; > 64 µg/mL in assay [3]; > 64 µg/mL in assay [4]; 32 µg/mL (≈ 80.9 µM) in assay [5]; 8 µg/mL (≈ 20.2 µM) in assay [6]. The MIC in assay [7] was 64 µg/mL (≈ 162 µM); in assay [8], > 64 µg/mL.
With `CC(C)(C)c1ccc(-c2nn(COc3ccc(F)c(C(N)=O)c3F)c(=O)o2)cc1`, the MIC in assay [1] is > 64 µg/mL; in assay [2], > 64 µg/mL; in assay [3], > 64 µg/mL; in assay [4], > 64 µg/mL; in assay [5], 32 µg/mL (≈ 79.3 µM); in assay [6], 8 µg/mL (≈ 19.8 µM). In addition, the MIC in assay [7] and in assay [8] was > 64 µg/mL throughout.
Turning to `NC(=O)c1c(F)ccc(OCc2nn(Cc3ccc(Br)cc3)c(=O)o2)c1F`, the MIC in assay [1] was > 64 µg/mL; in assay [2], > 64 µg/mL; in assay [3] it was 64 µg/mL (≈ 145 µM); in assay [4], > 64 µg/mL; in assay [5] it was 32 µg/mL (≈ 72.7 µM); in assay [6] it was 8 µg/mL (≈ 18.2 µM). Moreover, the figures for the MIC in assay [7] and in assay [8] were 64 µg/mL (≈ 145 µM) and > 64 µg/mL, respectively.
Consider `CCCCc1ccc(-n2nc(COc3ccc(F)c(C(N)=O)c3F)oc2=O)cc1`, for which the minimum inhibitory concentration (MIC) in assay [1] was > 64 µg/mL; in assay [2], > 64 µg/mL; in assay [3], 2 µg/mL (≈ 4.96 µM); in assay [4] it was > 64 µg/mL; in assay [5], 0.5 µg/mL (≈ 1.24 µM); in assay [6] it was 0.015 µg/mL (≈ 0.0372 µM). Besides, the MIC in assay [7] was 64 µg/mL (≈ 159 µM); in assay [8] it was > 64 µg/mL.
Take `N#Cc1ccc(-n2nc(COc3ccc(F)c(C(N)=O)c3F)oc2=O)cc1`: the MIC was 4 µg/mL (≈ 10.7 µM) in assay [1]; > 64 µg/mL in assay [2]; 16 µg/mL (≈ 43 µM) in assay [3]; > 64 µg/mL in assay [4]; 4 µg/mL (≈ 10.7 µM) in assay [5]; 2 µg/mL (≈ 5.37 µM) in assay [6]. Further, the values for the MIC in assay [7] and in assay [8] were 4 µg/mL (≈ 10.7 µM) and 8 µg/mL (≈ 21.5 µM), respectively.
In the case of `CC(C)(C)c1ccc(-n2nc(CCOc3ccc(F)c(C(N)=O)c3F)oc2=O)cc1`, the MIC was 4 µg/mL (≈ 9.58 µM) in assay [1]; > 64 µg/mL in assay [2]; 2 µg/mL (≈ 4.79 µM) in assay [3]; > 64 µg/mL in assay [4]; ≤ 0.125 µg/mL in assay [5]; 0.25 µg/mL (≈ 0.599 µM) in assay [6]. Further, the results for the MIC in assay [7] and in assay [8] were 1 µg/mL (≈ 2.4 µM) and 4 µg/mL (≈ 9.58 µM), respectively.
Regarding `NC(=O)c1c(F)ccc(OCc2nn(-c3ccc(Cl)cc3Cl)c(=O)o2)c1F`, the MIC is 4 µg/mL (≈ 9.61 µM) in assay [1]; > 64 µg/mL in assay [2]; 4 µg/mL (≈ 9.61 µM) in assay [3]; > 64 µg/mL in assay [4]; 0.5 µg/mL (≈ 1.2 µM) in assay [5]; 1 µg/mL (≈ 2.4 µM) in assay [6]. Also, the MIC in assay [7] was found to be 2 µg/mL (≈ 4.81 µM); in assay [8], 4 µg/mL (≈ 9.61 µM).
In the case of `CC(C)(C)c1ccc(-n2nc(COc3ccc(F)c(C(N)=O)c3F)oc2=O)cc1`, the MIC is 8 µg/mL (≈ 19.8 µM) in assay [1]; > 64 µg/mL in assay [2]; 16 µg/mL (≈ 39.7 µM) in assay [3]; > 64 µg/mL in assay [4]; 2 µg/mL (≈ 4.96 µM) in assay [5]; 1 µg/mL (≈ 2.48 µM) in assay [6]. Besides, the minimum inhibitory concentration (MIC) in assay [7] was determined as 8 µg/mL (≈ 19.8 µM); in assay [8], 16 µg/mL (≈ 39.7 µM).
Consider `CC(C)(C)c1ccc(Cn2nc(COc3ccc(F)c(C(N)=O)c3F)oc2=O)cc1`, for which the MIC in assay [1] was > 64 µg/mL; in assay [2], > 64 µg/mL; in assay [3] it was > 64 µg/mL; in assay [4], > 64 µg/mL; in assay [5], 32 µg/mL (≈ 76.7 µM); in assay [6], 32 µg/mL (≈ 76.7 µM). Further, the MIC in assay [7] and in assay [8] was > 64 µg/mL throughout.
Turning to `COc1ccc(-n2nc(COc3ccc(F)c(C(N)=O)c3F)oc2=O)cc1`, the MIC in assay [1] is 2 µg/mL (≈ 5.3 µM); in assay [2] it was > 64 µg/mL; in assay [3] it was 4 µg/mL (≈ 10.6 µM); in assay [4] it was > 64 µg/mL; in assay [5], 8 µg/mL (≈ 21.2 µM); in assay [6], 1 µg/mL (≈ 2.65 µM). The MIC in assay [7] and in assay [8] was 4 µg/mL (≈ 10.6 µM) in each case.
With `Cc1ccc(-c2nn(COc3ccc(F)c(C(N)=O)c3F)c(=O)o2)cc1`, the MIC in assay [1], in assay [2], in assay [3], in assay [4], in assay [5] and in assay [6] was > 64 µg/mL throughout. In addition, the MIC in assay [7] and in assay [8] was > 64 µg/mL each time.
Turning to `NC(=O)c1c(F)ccc(OCc2nn(-c3ccc(F)cc3)c(=O)o2)c1F`, the MIC is 16 µg/mL (≈ 43.8 µM) in assay [1]; > 64 µg/mL in assay [2]; 2 µg/mL (≈ 5.48 µM) in assay [3]; > 64 µg/mL in assay [4]; 8 µg/mL (≈ 21.9 µM) in assay [5]; 2 µg/mL (≈ 5.48 µM) in assay [6]. Moreover, the MIC in assay [7] was 8 µg/mL (≈ 21.9 µM); in assay [8], 16 µg/mL (≈ 43.8 µM).
Take `Cc1ccccc1-n1nc(COc2ccc(F)c(C(N)=O)c2F)oc1=O`: the MIC was > 64 µg/mL in assay [1]; > 64 µg/mL in assay [2]; > 64 µg/mL in assay [3]; > 64 µg/mL in assay [4]; 16 µg/mL (≈ 44.3 µM) in assay [5]; 16 µg/mL (≈ 44.3 µM) in assay [6]. Also, the MIC was 64 µg/mL (≈ 177 µM) in assay [7] and > 64 µg/mL in assay [8].
